# From paper PMC7068222, “Inhibition of Tyrosinase by Mercury Chloride: Spectroscopic and Docking Studies” (Frontiers in Pharmacology, 2020)
# Like-named read-outs stand apart in the source and are kept apart here.
# What was measured:
# [1] = target: T1, mushroom tyrosinase (monophenolase activity) (Agaricus bisporus, UniProt C7FF04); type: biochemical
# T1 construct: purchased Sigma-Aldrich
# Method: The method was modified based on the previous description ([Chen et al., 2016]). […] The appropriate blanks (containing both tyrosine and HgCl2 but without tyrosinase) were tested and subtracted to correct the absorbance.
# immobilized tyrosinase = target: T2, immobilized tyrosinase (Agaricus bisporus, UniProt C7FF04); type: biochemical, mushroom
# T2 construct: purchased Sigma-Aldrich
# T2 sequence (C7FF04 1-392 limits assumed): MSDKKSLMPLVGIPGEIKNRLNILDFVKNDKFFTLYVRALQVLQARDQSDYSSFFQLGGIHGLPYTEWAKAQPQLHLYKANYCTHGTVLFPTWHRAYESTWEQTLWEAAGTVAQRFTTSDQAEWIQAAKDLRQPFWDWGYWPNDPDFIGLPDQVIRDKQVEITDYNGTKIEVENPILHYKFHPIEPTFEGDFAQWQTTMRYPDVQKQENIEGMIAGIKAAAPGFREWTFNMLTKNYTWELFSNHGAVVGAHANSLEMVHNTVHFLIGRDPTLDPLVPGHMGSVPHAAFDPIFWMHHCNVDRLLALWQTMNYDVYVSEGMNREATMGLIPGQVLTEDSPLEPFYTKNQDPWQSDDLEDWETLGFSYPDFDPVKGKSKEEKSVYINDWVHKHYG
# Method: Experiments were conducted to confirm the inhibitory mechanism of HgCl2 on tyrosinase furtherly by using immobilized tyrosinase. In brief, we added 200 µL of diluted tyrosinase (2500 U/mL) to each well of a 24-well polystyrene plate and then covered the plate and incubated it at 4°C overnight to produce immobilized tyrosinase. The plate was brought to room temperature, and we thoroughly decanted the solution from wells and washed the wells two times with PBS to remove the unfixed enzyme. We added 3 mL of inhibitor solution to each well and incubated them at room temperature for 30 mins to assure the fully reaction between the inhibitor and the enzyme, discarding the liquid following by washing the wells two times with PBS to remove the excess inhibitor. Then, 3 mL of PBS was added to each well, and they stood for 10 mins to make the dissociation of inhibitor-tyrosinase complex. WE thoroughly decanted the solution from wells to remove the dissociated inhibitor (the procedure was repeated three times). Finally, 3 mL of substrate (dopa) was added to each well and react at room temperature for 30 mins to test the residual activity of tyrosinase.
# [2] = target: T3, mushroom tyrosinase (diphenolase activity) (Agaricus bisporus, UniProt C7FF04); experiment: Kinetic analysis of inhibition mechanism and type (enzyme-concentration plots, Lineweaver-Burk plot, secondary plot); type: biochemical; design: purchased Sigma-Aldrich
# Text: (1) 1/ν=Km/Vmax(1+[I]/Ki)1/[S]+1+[I]/Ki/Vmax and a secondary plot is presented below
# (2) In.=[I]/KiVmax+1/Vmax where ν is velocity of the enzyme reaction calculated by a change in absorbance at the wavelength of 475 nm per minute in the absence and presence of HgCl2. K m and K i are the Michaelis–Menten constant and inhibition constant, respectively. The values of K m can be calculated from the equation (1). [I] and [S] are the concentrations of inhibitor and substrate, respectively. In. is the intercept value of the Lineweaver–Burk curve. K i should be calculated by the secondary plot of In. vs. [I].
# The relationship between enzyme activity (expressed as the rate of the oxidation reaction) and its concentration (6.67, 13.33, 20, 26.67, and 33.33 U/mL) in the presence of different concentrations of HgCl2 (0, 4.17, 16.67, 33.33, and 66.67 μmol/L) was investigated.
# Target sequence in this assay (C7FF04 1-392 limits assumed): as above
# tyrosinase = target: T4, tyrosinase (Agaricus bisporus, UniProt C7FF04); experiment: Intrinsic fluorescence quenching of tyrosinase; type: binding, mushroom; conditions: for Kq (quenching rate constant): Kq = Ksv/τ0, τ0 = 10^-8 s
# T4 construct: purchased Sigma-Aldrich
# T4 sequence (C7FF04 1-392): as the sequence (C7FF04 1-392 limits assumed) above
# Method: The fluorescence emission spectra were obtained using Spectrofluorometer FS5 (Edinburgh Instruments, England) equipped with a 150 W xenon lamp and a thermostat bath. We added a 2.0 mL aliquot of tyrosinase solution (400 U/mL) to the quartz cuvette (1 cm path length) and gradually added 2 mmol/L solution of HgCl2 to give concentrations ranged from 0 to 400 μmol/L. After five-minute incubation periods, fluorescence in the range of 290–500 nm was measured while the excitation wavelength was fixed at 280 nm. All the fluorescence data collected from these experiments were corrected for absorption of excitation light and re-absorption of emitted light according to the following equation: ([Wang et al., 2015])
# where F c and F m represent the corrected and measured fluorescence, respectively. A1 and A2 are the absorbance of HgCl2 at excitation and emission wavelengths, respectively.
# To identify the interaction mechanism of HgCl2 on tyrosinase, the data of fluorescence quenching were presented in the form of a Stern-Volmer plot, using the following equation:
# (4) F0/F=1+Kqτ0[Q]=1+Ksv[Q]
# where, F 0 and F represent the steady-state fluorescence intensities in the absence and presence of HgCl2 (quencher), respectively, [Q] denotes the concentration of HgCl2, K q is the quenching rate constant of the biomolecule (K q = K sv/τ0), K sv is the Stern–Volmer dynamic quenching constant, and τ0 is the average lifetime of the fluorophore in the absence of quencher (τ0 = 10^-8 s). The value of K sv determined by the linear regression plot of F0/F vs. [Q] at 298 and 304 K were (2.14 ± 0.05) × 10^4 and 1.83 ± 0.03 × 10^4 L/mol, respectively. […] K sv values decreased gradually with the increase of the temperatures, which manifested that the fluorescence quenching of tyrosinase by HgCl2 was a static quenching process ([Lin et al., 2018]).
# For static quenching interactions, if there are similar and independent sites in biological molecules, the apparent binding constants (K a) and the number of binding sites (n) can be obtained from the following equation:
# (5) logF0−F/F=logKa+nlog[Q]
# [3] = target: T3, mushroom tyrosinase (diphenolase activity); type: biochemical; conditions: substrate dopa 0.5 mmol/L, tyrosinase 13.33 U/mL, pH 6.8, 305 K
# Target sequence in this assay (C7FF04 1-392): as the sequence (C7FF04 1-392 limits assumed) above
# Method: The assays were carried out by using 3 mL of reaction system containing 0.5 mmol/L substrate (dopa) in 50 mmol/L PBS (pH = 6.8) at 305 K. The final concentration of tyrosinase was 13.33 U/mL. […] Relative enzymatic activity (%) = (A1-A3)/A2×100%. The experiment was repeated three times. The IC50 value was calculated as the concentration (leading to achieve 50% inhibition) according to the equation, which is obtained by curve fitting of the enzyme activity versus the concentrations of inhibitor.
# [4] = test system: tyrosinase (monophenolase and diphenolase activity) in the presence of HgCl2; experiment: Effect of premixing amino acids with HgCl2 on tyrosinase inhibition (protection of enzyme activity); type: biochemical, mushroom
# Method: According to the results of docking study, we furtherly checked the interactions between HgCl2 and amino acid. We assumed that if HgCl2 indeed binds to the amino acid residues of the enzyme, such as His, Val, Glu, and Ala, premixing the amino acid with HgCl2 would affect the inhibitory effects. Thus, the monophenolase and diphenolase activity of tyrosinase both were determined by adding the mixture of HgCl2 and amino acid. The mixture was prepared just before use by adding an aliquot of 200 μL HgCl2 solution to the equal volume of amino acid solution, and which was allowed to react for 10 mins at room temperature. […] In brief, 5 and 10 mmol/L solutions of His, HgCl2 were prepared beforehand, and the mixture was produced by mixing the His and HgCl2 solutions (10 mmol/L) in the volume ratio of 1:1. The spectra of the samples at the wavelengths between 200 and 800 nm were scanned by using UV spectrophotometer (UV 2550, SHIMADZU).The experiment was repeated three times.
# [5] = from plot of log[(F0-F)/F] vs log[Q]
# T1 sequence (C7FF04 1-392 limits assumed): as above
smiles,measurement,setting,value
"[Cl][Hg][Cl] [HgCl2, Mercuric chloride]",lag time of monophenolase reaction at highest inhibitor concentration,"[1]; prolonged with increasing inhibitor concentration, without inhibitor 1.44 min (kojic acid series), 2.00 min (HgCl2 series)",13.4 min
same,IC50,"[1]; substrate tyrosine 0.5 mmol/L, tyrosinase 33.33 U/mL, pH 6.8, 305 K",30 µM
same,Relative activity (%) of immobilized tyrosinase after inhibitor treatment and washing,"immobilized tyrosinase; kojic acid and HgCl2 666.67 μmol/L, 30 min incubation, PBS treatment = 100%, substrate dopa",28.32%
same,inhibition type (Lineweaver-Burk),"[2]; diphenolase activity, tyrosinase 13.33 U/mL",non-competitive inhibition
same,Ki,"[2]; diphenolase, secondary plot of intercept vs inhibitor concentration, read-out: Ki (inhibition constant)",29.4 µM
same,inhibition mechanism (reversibility),"[2]; plots of activity vs enzyme concentration, HgCl2 0-66.67 μmol/L",irreversible
same,Ksv (Stern-Volmer quenching constant),tyrosinase; 298 K,(2.14 ± 0.05) × 10^4 L/mol
same,Kq (quenching rate constant),tyrosinase; 298 K,(2.14 ± 0.05) × 10^12 L/mol/s
same,Ksv (Stern-Volmer quenching constant),tyrosinase; 304 K,1.83 ± 0.03 × 10^4 L/mol
same,Kq (quenching rate constant),tyrosinase; 304 K,(1.83 ± 0.03) × 10^12 L/mol/s
same,Ka (apparent binding constant),tyrosinase; [5],(2.87 ± 0.02) × 10^4 L/mol
same,n (number of binding sites),tyrosinase; [5],0.96 ± 0.01
same,IC50,[3],77.9 µM
"CCO [95% ethanol, ethanol, reference compound]",Relative activity (%) of immobilized tyrosinase after inhibitor treatment and washing,immobilized tyrosinase,3.34%
"N[C@@H](Cc1c[nH]cn1)C(=O)O [His, Histidine]",protecting capability on diphenolase activity in the presence of HgCl2,[4]; His 10.42 μmol/L,48.83 ± 1.89%
same,protecting capability on diphenolase activity in the presence of HgCl2,[4]; His 666.67 μmol/L,83.43 ± 2.56%
same,effect on protecting the diphenolase activity in the presence of HgCl2,[4]; amino acid premixed with HgCl2,significant effect
same,effect on protecting the monophenolase activity in the presence of HgCl2,[4]; amino acid premixed with HgCl2,protect the monophenolase activity
"C[C@H](N)C(=O)O [Ala, alanine]",effect on protecting the monophenolase activity in the presence of HgCl2,[4]; amino acid premixed with HgCl2,no effects
"N[C@@H](CCC(=O)O)C(=O)O [Glu, glutamate]",effect on protecting the monophenolase activity in the presence of HgCl2,[4]; amino acid premixed with HgCl2,no effects
"CC(C)[C@H](N)C(=O)O [Val, valine]",effect on protecting the monophenolase activity in the presence of HgCl2,[4]; amino acid premixed with HgCl2,no effects
